Literature values as cited in patent US20150297556A1 (priority 2014, published 2015).

Q: For “(1S,5S)-2,6,6-Trimethylbicyclo[3.1.1]hept-2-ene ((−)-α-Pinene)”, which human pulmonary uptake is on record?
A: 60%
